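Where inhibition never reached the appropriate level, the endpoint shown equals the highest concentration tested. Otherwise, values were interpolated linearly from a five-concentration, 48-hour dose response in 96-well plates. GI50 = concentration required for 50% inhibition of growth.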 Activity calls are given as the source filed them. No stated cut-off is given here; in the data, active = GI50 up to about 1.1 µM and inactive = higher.
What was measured:
Assay in all cases: DTP human tumour cell line panel, 48 h
CCRF-CEM = system: CCRF-CEM
Malme-3M = system: Malme-3M
SK-MEL-28 = system: SK-MEL-28
KM12 = system: KM12
U-251 = system: U-251
DU-145 = system: DU-145
NCI-H23 = system: NCI-H23
SW-620 = system: SW-620
T47D = system: T47D
BT-549 = system: BT-549
HCC 2998 = system: HCC 2998
LOX IMVI = system: LOX IMVI
SF-268 = system: SF-268
SNB-19 = system: SNB-19
MDA-MB-435 = system: MDA-MB-435
SF-295 = system: SF-295
CAKI-1 = system: CAKI-1
786-0 = system: 786-0
SNB-75 = system: SNB-75

Measured: GI50

COC(=O)C1=C(O)c2ccc(Cl)cc2S(=O)(=O)N1C
inactive: CCRF-CEM 39.4 µM | Malme-3M 77.6 µM | SK-MEL-28 > 100 µM | KM12 > 100 µM | U-251 81.3 µM | DU-145 > 100 µM | NCI-H23 58.9 µM | SW-620 80.2 µM | T47D > 100 µM | BT-549 > 100 µM | HCC 2998 > 100 µM | LOX IMVI > 100 µM | SF-268 64.7 µM | SNB-19 60.4 µM | MDA-MB-435 > 100 µM | SF-295 60.5 µM | CAKI-1 > 100 µM | 786-0 > 100 µM

O=c1c(Cc2ccc(Cl)cc2)nnc2sc(-c3ccc(-c4ccc(Cl)cc4Cl)o3)nn12
inactive: CCRF-CEM 61.7 µM | Malme-3M > 100 µM | SK-MEL-28 > 100 µM | KM12 76.6 µM | U-251 31 µM | DU-145 70 µM | NCI-H23 66.5 µM | SW-620 > 100 µM | T47D 74.5 µM | BT-549 > 100 µM | HCC 2998 49.5 µM | LOX IMVI 47.1 µM | SF-268 > 100 µM | SNB-19 33.3 µM | MDA-MB-435 71 µM | SF-295 83.6 µM | CAKI-1 73.5 µM | 786-0 48 µM

Cc1cccc2nc3cc(O)cc(O)c3c(O)c12
inactive: CCRF-CEM > 10 µM | SNB-75 4.54 µM | Malme-3M > 10 µM | SK-MEL-28 > 10 µM | KM12 > 10 µM | U-251 > 10 µM | DU-145 > 10 µM | NCI-H23 > 10 µM | SW-620 > 10 µM | T47D > 10 µM | BT-549 > 10 µM | LOX IMVI > 10 µM | SF-268 > 10 µM | SNB-19 > 10 µM | MDA-MB-435 > 10 µM | SF-295 > 10 µM | CAKI-1 > 10 µM | 786-0 > 10 µM

N#CCCCCC12C3C(=O)N(c4ccccc4)C(=O)C3ON1O[C@@H]1C(=O)N(c3ccccc3)C(=O)[C@@H]12 (stereo partly drawn)
inactive: CCRF-CEM > 100 µM | Malme-3M > 100 µM | SK-MEL-28 > 100 µM | KM12 > 100 µM | U-251 > 100 µM | DU-145 > 100 µM | NCI-H23 > 100 µM | SW-620 > 100 µM | T47D > 100 µM | BT-549 > 100 µM | HCC 2998 > 100 µM | LOX IMVI > 100 µM | SF-268 > 100 µM | SNB-19 > 100 µM | MDA-MB-435 > 100 µM | SF-295 > 100 µM | CAKI-1 > 100 µM | 786-0 > 100 µM

CCOc1cc(-c2nc3ccccn3c2/N=C/c2cc([N+](=O)[O-])cc([N+](=O)[O-])c2O)ccc1O
inactive: CCRF-CEM 45 µM | SNB-75 88.1 µM | Malme-3M > 100 µM | SK-MEL-28 > 100 µM | KM12 > 100 µM | U-251 > 100 µM | DU-145 > 100 µM | NCI-H23 > 100 µM | SW-620 > 100 µM | T47D > 100 µM | BT-549 > 100 µM | LOX IMVI > 100 µM | SF-268 > 100 µM | SNB-19 > 100 µM | MDA-MB-435 > 100 µM | SF-295 > 100 µM | CAKI-1 > 100 µM | 786-0 > 100 µM

O=C(O)C1C2C=CC(O2)C1C(=O)NCc1ccccn1 (stereo not drawn)
inactive: CCRF-CEM > 100 µM | SNB-75 > 100 µM | Malme-3M > 100 µM | SK-MEL-28 > 100 µM | KM12 > 100 µM | U-251 > 100 µM | DU-145 > 100 µM | NCI-H23 > 100 µM | SW-620 > 100 µM | T47D > 100 µM | BT-549 > 100 µM | LOX IMVI > 100 µM | SF-268 > 100 µM | SNB-19 > 100 µM | MDA-MB-435 > 100 µM | SF-295 > 100 µM | CAKI-1 > 100 µM | 786-0 > 100 µM

CC1(C)Oc2ccc3c(=O)c4ccccc4oc3c2C1C(=O)O (stereo not drawn)
inactive: CCRF-CEM > 100 µM | Malme-3M > 100 µM | U-251 > 100 µM | DU-145 > 100 µM | NCI-H23 > 100 µM | T47D > 100 µM | BT-549 > 100 µM | HCC 2998 > 100 µM | SF-268 > 100 µM | MDA-MB-435 > 100 µM | SF-295 > 100 µM | CAKI-1 > 100 µM | 786-0 > 100 µM

COc1ccc(N2C(=O)/C(=C\c3cccc(Oc4ccccc4)c3)SC2c2ccccc2)cc1 (stereo not drawn)
inactive: CCRF-CEM 5.3 µM | Malme-3M 34.6 µM | SK-MEL-28 38.1 µM | KM12 45 µM | U-251 26.1 µM | DU-145 73.8 µM | NCI-H23 41.7 µM | SW-620 32.9 µM | T47D 37.5 µM | BT-549 25.3 µM | HCC 2998 > 100 µM | LOX IMVI 21.9 µM | SF-268 33.2 µM | SNB-19 24.2 µM | MDA-MB-435 30.5 µM | SF-295 60 µM | CAKI-1 > 100 µM | 786-0 > 100 µM

C/C(=N/S(=O)(=O)c1ccc(Cl)c(Cl)c1)OCC(C)(C)C
inactive: CCRF-CEM > 100 µM | SNB-75 > 100 µM | Malme-3M > 100 µM | SK-MEL-28 > 100 µM | KM12 > 100 µM | U-251 > 100 µM | DU-145 > 100 µM | NCI-H23 > 100 µM | SW-620 > 100 µM | T47D > 100 µM | BT-549 > 100 µM | LOX IMVI > 100 µM | SF-268 > 100 µM | SNB-19 > 100 µM | MDA-MB-435 > 100 µM | SF-295 > 100 µM | CAKI-1 > 100 µM | 786-0 > 100 µM

CCOC(=O)C1(C/C=C/CBr)CCc2ccccc2C1=O (stereo not drawn)
inactive: CCRF-CEM 5.25 µM | SNB-75 10.4 µM | Malme-3M 19.1 µM | SK-MEL-28 17.5 µM | KM12 15.5 µM | U-251 14.1 µM | DU-145 14 µM | NCI-H23 16.8 µM | SW-620 14.5 µM | T47D 14.3 µM | BT-549 16.7 µM | LOX IMVI 6.37 µM | SF-268 18.5 µM | SNB-19 14.4 µM | MDA-MB-435 14.3 µM | SF-295 17.3 µM | CAKI-1 15.1 µM | 786-0 16.2 µM

COC(=O)C1(O)C(c2ccccc2)NC2(C)CCCC21 (stereo not drawn)
inactive: CCRF-CEM > 100 µM | SNB-75 > 100 µM | Malme-3M > 100 µM | SK-MEL-28 > 100 µM | KM12 > 100 µM | U-251 > 100 µM | DU-145 > 100 µM | NCI-H23 > 100 µM | SW-620 > 100 µM | T47D > 100 µM | BT-549 > 100 µM | LOX IMVI > 100 µM | SF-268 > 100 µM | SNB-19 > 100 µM | MDA-MB-435 > 100 µM | SF-295 > 100 µM | CAKI-1 > 100 µM | 786-0 > 100 µM

— ChEMBL document CHEMBL1201862, “PubChem BioAssay data set” (2004)
